| Compound | melting point [°C] |
| --- | --- |
| Cc1cccnc1S(=O)(=O)NC(C)(C)C | 107 to 110 |
| [N-]=[N+]=NCC1Cc2c[nH]c3cccc(c23)C(=O)N1 (stereo unspecified) | 152 to 153 |
| CCN(CC)c1ccc2c(c1)[C@@H]1[C@H](C2)c2ccc(N(CC)CC)cc2N1C(C)=O (relative stereo) | 137 to 138 |
| COc1cc(OC)c2c(c1)N1CCCCC1CC2=O (stereo unspecified) | 91 to 94 |
| Cn1c(CC(=O)O)ccc1C(=O)c1ccc(C(F)(F)F)cc1 | 152 to 154 |
| CCCCc1nc2c(OC)ccc(CCN(C)C)c2[nH]1 | 116 to 122 |
| Cc1ccc(S(=O)(=O)C2=C(C(=O)OC3CCCCC3)C(=O)C=C(C(=O)OC3CCCCC3)C2=O)cc1 | 135 to 137 |
| CCOC(=O)c1cnc(Cl)cc1Cl | 32 to 32.5 |
| CCC12CCC(=O)C=C1c1c(cc(OCC(=O)OCC3COC(C)(C)O3)c(Cl)c1Cl)C2 (stereo unspecified) | 143 to 145 |
| O=C(CCCCNC(=O)c1cn2c3c(cccc13)CCC2)NO | 179 to 181 |
| COc1cc(C=C(C#N)C(=O)Nc2cccc(Cl)c2)cc(F)c1O | 235 |
| CCCCCCCCCCCCCCCCS(=O)(=O)NCCc1ccc(C(=O)O)cc1 | 168 to 169 |
| COc1ccc2ncc3c(c2c1)C(OC(C)=O)CCC3 (stereo unspecified) | 116 to 117 |
| CNc1ncnc2c1ncn2C1OC(CO)C(OC)C1(C)O (stereo unspecified) | 165 |
| CN1Cc2c(CCl)ncn2-c2ccccc2C1=O | 277 to 280 |
| CCCCN(CCCC)c1ccc(C=CC2=C(OC)C(=CC=CC3=C(C#N)C(=C(C#N)C#N)OC3(C)C(F)(F)F)CC(C)(C)C2)c(OC)c1 (stereo unspecified) | 141 to 151 |
| CCOC(=O)Cc1ccc(CCNC(=O)c2cc(C)ccc2OC)cc1 | 83 to 85 |
| CCc1cc(Cl)c(NC(C)=O)c(Cl)n1 | 142 |
| NNc1nc2cc(Cl)ccc2nc1Cl | < 250 |
| CCOC(=O)CCC(=O)c1ccc(CCCCN2CCN(c3cccc(C)c3)CC2)cc1 | 62 to 63 |
| CCc1c(C(=O)O)oc2ccc(Br)cc12 | 240 to 242 |

| Compound | melting point [°C] |
| --- | --- |
| O=C(SCCC(=O)N1CCC[C@H]1C(=O)O)c1ccccc1 | 101 to 102 |
| CN(C)C(=O)N1CC(Sc2ccc(Cl)cc2)C1 | 96 to 97 |
| O=C(OCC1OC(OC(=O)C2CCCCC2)C(OC(=O)C2CCCCC2)C(OC(=O)C2CCCCC2)C1OC(=O)C1CCCCC1)C1CCCCC1 (stereo unspecified) | 174 to 176 |
| COCC1(O)CCN(c2ccc(N3C[C@H](CNC(C)=O)OC3=O)cc2)CC1 | 152 to 154 |
| C[C@@H]1N[C@H](c2ccccc2)COC1=O | 82 to 83 |
| [N-]=[N+]=NC[C@H]1CN(c2ccc(N3C[C@@H]4C[C@H]3CO4)c(F)c2)C(=O)O1 | 101 to 102 |
| COc1ccc(C(=O)NC(Cc2ccccc2)C(=O)NC(Cc2ccc(O)cc2)C(=O)O)cc1 (stereo unspecified) | 198 to 200 |
| Nc1nc2c(ncn2C2CCC(CO)O2)c(=O)[nH]1 (stereo unspecified) | > 250 |
| CC(=O)OC1COC(N)C(OC(C)=O)C1OC(C)=O (stereo unspecified) | 148 to 149 |
| O=C(O)c1cc(S(=O)(=O)N2CCC(Br)C(Br)C2)ccc1Cl (stereo unspecified) | 176 to 178 |
| CCOC(=O)c1ccc(/C=C/C(=O)O)cn1 | 201 to 202 |
| CC(=O)Nc1nc2ncn(C)c(=S)n2n1 | > 300 |
| CC1(C)CN(c2ncc(C(=O)O)c(N)n2)C(=O)N1 | 290 to 291 |
| CC1(C)c2cc(C#N)ccc2OC1N=C=S (stereo unspecified) | 52 |
| COC(=O)c1ccsc1 | 84 to 85 |
| N#Cc1cc(Br)cc(-c2ccsc2)c1 | 62 to 63 |
| CCCOc1ccc(-c2ccc3c(c2)C=C(C(=O)Nc2ccc(CN(C)C4CCOCC4)cc2)CCS3(=O)=O)cc1OCCC | 206 to 208 |
| O=C(N[C@H]1CC[C@H](CCN2CCN(c3nccc4c3OCC4)CC2)CC1)C1CCC1 | 186 |
| CCOC(=O)C(N)c1ccc(C(C)=O)cc1 (stereo unspecified) | 77 to 78 |
| Cn1c(SC(Cl)=C(Cl)C#N)nnc1C(F)(F)F | 90 to 94 |

The next lines start with the values.

| melting point [°C] | Compound |
| --- | --- |
| 302 to 304 | NS(=O)(=O)c1ccc(-c2[nH]c3ccc(F)cc3c2-c2ccccc2)cc1 |
| 155 | CCOC(=O)N1C=CC(c2c(-c3cccs3)nc3ccc(N4CCN(C(=O)OC(C)(C)C)CC4)nn23)C=C1 |
| 205 to 207 | CC(CC(=O)NO)c1cccc(Nc2ccccc2-c2n[nH]c(=S)o2)c1Cl (stereo unspecified) |
| 133 | Cc1ccc2cc(-c3ccc4ccc5cccc6ccc3c4c56)ccc2n1 |
| 41 to 42 | CSc1nc(N)n(-c2ccccc2Oc2ccc(C)cc2O)n1 |
| 159 to 161 | CC(=O)Nc1c(C(=O)c2cccc(OCc3ccccc3)c2)[nH]c2cc(Cl)ccc12 |
| 196 to 198 | O=C(O)C1=Cc2cc(Cl)cc(-c3ccccc3)c2OC1C(F)(F)F (stereo unspecified) |
| 169 to 171 | CC(C(=O)OC(C)(C)C)c1ccc(N2Cc3ccc(Cl)cc3C2=O)cc1 (stereo unspecified) |
| 185 to 187 | Cn1c(C(F)(F)F)cc(=O)n(-c2ccc3snc(C(Br)C#N)c3c2)c1=O (stereo unspecified) |
| 239 to 242 | COc1ccc(-c2c(-c3ccccc3)c(Sc3ccc4c(c3)CC[C@H]3N(C)C(=O)CC[C@]43C)nc3ccccc23)cc1 |
| 100 to 110 | CC(C)CON=Cc1ccc2c(c1)c1cc(-c3ccc(Cl)cc3Cl)c(=O)n(C)c1n2C |
| 85 | COc1cccc(N(C)C(=O)c2ncc(-c3cccc(C)c3)s2)c1 |
| 130 to 132 | CCOC(=O)COc1ccc(NC(C)=O)cc1NC(=O)c1ccc(OCCCCc2ccccc2)cc1 |
| 296 to 301 | O=C1C2=C(NC(=O)C3(N2)OCCO3)c2ccccc21 |
| 125 to 133 | Cc1ccc(-c2c([N+](=O)[O-])oc3ccccc23)cc1C |
| 205 to 207 | COc1ccc(-c2nc3cc(C(N)=O)ccc3[nH]2)c2ccc(C(F)(F)F)nc12 |
| 198 | CC(C)Cn1c(=O)n(C)c(=O)c2c(Sc3cccs3)c(Cn3cnc4ccccc43)sc21 |
| 103 to 105 | Cc1ccc(C(=O)C2Cc3ccccc3C2=O)cc1 (stereo unspecified) |
| 146 to 148 | COc1ccccc1Oc1c(N=[N+]=[N-])nc(N2CCOCC2)nc1OCCOCc1ccccc1 |
| 103 to 106 | COC(=O)C1CCCn2c(=O)n(CC(=O)OCc3ccccc3)c(=O)n21 (stereo unspecified) |
| 183 to 185 | CCOC(=O)c1nc(NC)sc1-c1nc2ccccn2c1C |
| 272 to 273 | O=C1c2ccccc2C(=O)N1CC(=O)N1c2ccccc2N(c2ccccc2)C(=O)C2CCCC21 (stereo unspecified) |
| 91 | COC(=O)Cc1ccc2oc(-c3ccc(OC)c(OC)c3)c(SC)c2c1 |
| 137 to 138 | CN1CC2(CCN(Cc3ccccc3)CC2)OC1=O |
| 72 to 73 | CCCCN(C)C(=O)CS(=O)CCCCCCOc1ccc(C2=C(c3ccccc3)CCCc3cc(O)ccc32)cc1 (stereo unspecified) |
| 138 | C=CCOc1ccc(-c2cc(C(=O)NCc3ccc(OC(C)(C)C(=O)O)c(C)c3)nn2C)cc1 |
| 265 to 267 | N=C(NO)c1nc2cnc3ccc(Cl)cc3c2n1-c1ccccc1Cl |
| 254 to 256 | N#Cc1ccc(-c2cc(C(=O)O)c(=O)n(Cc3ccccc3)n2)cc1 |
| 159 to 161 | CCCCCc1c(-c2ccc3c(Br)c(OCC(=O)O)ccc3c2)oc2ccccc12 |
| 192 to 194 | CC(c1ccc(F)c(F)c1F)n1ncc(-c2ccc(S(N)(=O)=O)cc2)c(-c2ccc(F)cc2)c1=O (stereo unspecified) |

— a melting point compilation (Tetko et al.; mined from patent text by program, amines drawn as free bases though some values may be those of a salt)
